Experiments:
[1] = target: PRMT1 (Homo sapiens, UniProt Q99873); assay: PRMT1 enzyme activity test; assay type: biochemical; conditions: 0.5 nM PRMT1, 3H-SAM, peptide
How it was run: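 Radiometric methylation assay: 0.5 nM PRMT1 preincubated 15 min at room temperature with compound (10-point 3-fold series, 1% DMSO) in pH 8.0 Tris buffer with Tween-20 and DTT. 0.25 uM ³H-SAM and 0.1 uM biotinylated peptide then reacted 120 min. Product captured on streptavidin FlashPlate and counted; IC50 from four-parameter fit of % inhibition.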

[2] = system: Toledo cells; assay: Toledo cell proliferation inhibition assay; assay type: cell-based; conditions: Homo sapiens, Toledo, 144 h; six-day assay, CellTiter-Glo
How it was run: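 Toledo cells seeded at 2000 cells/well in RPMI 1640 + 10% FBS and incubated with compound for six days at 37° C, 5% CO2. Viability was then read by CellTiter-Glo luminescence after 30 min orbital mixing.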

[3] = system: MMA in RKO cells; assay: RKO In Cell Western assay (MMA primary antibody); assay type: cell-based; conditions: Homo sapiens, 72 hours, read-out: RKO ICW_EC30
Experimental: RKO was seeded at a concentration of 20,000 cells/ml into a polylysine-coated 96-well plate (Corning #3599), with 2,000 cells per well and 100 μL of culture mediumper well. 500 nL of compound was added to the 96-well plate. 3) The 96-well plate was incubated in a 37° C., 5% CO2 incubator for 72 hours. After three days, the 96-well plate was taken from the incubator, 100 μL of 8% paraformaldehyde solution was added to each well, and the plate was placed at room temperature for 15 min. After 15 min, the liquid in the plate was shaken out and the plate was washed three times with phosphate buffer (1*PBS). The liquid in the plate was shaken out and 200 μL of membrane-breaking buffer (0.1% (v/v) Tween-20 in PBS) was added and the plate was incubated on a shaker for 30 min. After half an hour, the liquid in the plate was shaken out, and blocking buffer was added and the plate was incubated for two hours at room temperature with shaking. After that, the liquid in the plate was shaken off, and the blocking solution containing primary antibody (MMA primary antibody, CST #8711S, 1:1000 v/v) was added to the 96-well plate and the plate was incubated at 4° C. overnight with shaking. The next day, the plate was washed three times with washing solution (0.05% (v/v) Tween-20 in PBS), and a blocking solution containing secondary antibody (goat anti-rabbit IgG (H+L) Invitrogen #31460, 1:10,000 v/v) was added and the plate was incubated for two hours at room temperature. Afterwards, the 96-well plate was washed four times with washing solution. The TMB mixture was added to the 96-well plate and then the plate was incubated for 15 minutes at room temperature with shaking. After that, the reaction terminating solution was added, and the value was read at OD450 nm using an microplate reader. The plate was washed three times with washing solution, and 50 μL of janusgreen staining solution was added, and the plate was incubated for 15 minutes at room temperature with shaking. The reaction was washed ten times with water until no color residue was left. 200 μL of 0.5 M hydrochloric acid solution was added to each well and the plate was incubated for 10 min at room temperature. The value was read at OD595 nm using Flexstation.
Firstly, the ratio OD450/OD595 was calculated for each well
Each plate had six DMSO negative control groups (ZPE) and six 10 μM positive control groups (HPE), and the average of the control group ratios was used to determine the percentage of activation for each test well. The compounds to be tested were triple diluted with DMSO for a total of 8 concentration points with a starting concentration of 5 μM. The equation for calculating the activation percentage of each test well was: […]

[4] = system: MV-4-11 cells; assay: MV-4-11 cell proliferation inhibition assay; assay type: cell-based; conditions: Homo sapiens, MV4-11, 144 h; six-day assay, CellTiter-Glo
Experimental: • A. Purpose: to determine the effects of compounds on Toledo cells through a six-day cell proliferation assay. • B. Reagents and materials: • 1. Cell culture medium: RPMI 1640+10% FBS • 2. 384-well cell culture plate (Corning, item #3764) • 3. 0.4% Taipan Blue Staining Solution (Thermo Fisher, item #T10282) • 4. cell counting plate (Thermo Fisher, item #C10228) • 5. 50 ml reagent reservoir (Corning, item #4870) • 6. 50 ml conical sterile polypropylene centrifuge tube (Thermo Fisher, item #339653) • 7. Automatic cell counter (Thermo Fisher, item #AMQAX1000) • 8. CellTiter-Glo Luminescent Cell Viability Detection Reagent (Promega, item #G7572) • 9. SpectraMax i3x Multi-Mode Enzyme Labeling Instrument (Megaman Molecular Instruments, item #5024062) • C. Experimental method • 1. Resuspending the cells with a pipette. • 2. 0.4% Taipan blue staining solution and Toledo cells were mixed in equal proportion, and the cells were counted using an automatic cell counter. • 3. Toledo cells were diluted to a final concentration of 2000 cells per well and transferred to a 50 ml reagent reservoir. • 4. Diluted Toledo cells were added to a 384-well cell culture plate, 40 ul per well. • 5. The cells were shortly centrifuged and settled. • 6. The cells were incubated in a 37° C., 5% CO2 cell culture incubator. • 7. The substrate in the CellTiter-Glo Luminescent Cell Viability Detection Reagent was mixed with the solution. • 8. After six days, the 384-well cell culture plate was taken from the incubator and 20 ul of configured CellTiter-Glo reagent was added to each well. • 9. 384-well cell culture platewasmixed in an orbital shaker for 30 minutes. • 10. Signal of luminescence was detected with a SpectraMax i3x multi-mode enzyme labeling instrument.
Similar to the Toledo cell proliferation inhibition assay method, the difference was that MV-4-11 cells were used and the cell culture medium was IMDM+10% FBS; in step 3 of the assay method 250 cells per well was used instead;

Sequence of PRMT1 (Q99873 whole entry): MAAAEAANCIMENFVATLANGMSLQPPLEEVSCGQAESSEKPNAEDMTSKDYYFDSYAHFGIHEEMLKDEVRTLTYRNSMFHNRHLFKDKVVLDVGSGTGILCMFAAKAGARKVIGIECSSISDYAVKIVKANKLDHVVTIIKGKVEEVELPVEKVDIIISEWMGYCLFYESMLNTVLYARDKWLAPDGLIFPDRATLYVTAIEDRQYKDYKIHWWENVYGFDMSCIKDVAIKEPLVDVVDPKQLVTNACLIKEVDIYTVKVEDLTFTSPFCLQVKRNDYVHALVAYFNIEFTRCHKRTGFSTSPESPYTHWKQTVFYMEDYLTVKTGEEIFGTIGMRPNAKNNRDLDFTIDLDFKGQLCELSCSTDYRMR

IC50 [1] [nM] | IC50 [4] [nM] | Structure (SMILES) | IC50 [2] [nM] | EC30 [3] [nM]
< 50 | – | CNCCN(C)Cc1ccc(N)nc1C1CCN(c2cccc(C)c2)CC1 [P226, N^1-((6-amino-2-(1-(m-tolyl)piperidin-4-yl)pyridin-3-yl)methyl)-N^1,N^2-dimethylethane-1,2-diamine] | < 1000 | < 250
< 50 | – | CNCCN(C)Cc1ncccc1C1CCN(c2nc(N(C)C)nc3ccccc23)CC1 [P240] | < 1000 | 250 to 2500
< 50 | – | CNCCN(C)Cc1ncccc1N1CCc2ccc(N)cc2CC1 [P243] | < 1000 | 250 to 2500
< 50 | – | CNCCN(C)Cc1ncccc1C1CCN(c2ncc3ccccc3n2)CC1 [P250] | < 1000 | 250 to 2500
< 50 | – | CNCCN(C)Cc1ncccc1C1CCN(c2ccnc(N3CCCC3)n2)CC1 [P251] | < 1000 | 250 to 2500
< 50 | – | CNCCN(C)Cc1ncccc1C1CCN(c2nccc(N3CCCC3)n2)CC1 [P252] | < 1000 | 250 to 2500
< 50 | – | CCOCC1(COCC)CCC(c2cc3c(cc2CN(C)CCNC)CNC3=O)CC1 [P258] | < 1000 | < 250
– | < 1000 | CNCCN(C)Cc1ccc2[nH]c(=O)[nH]c2c1C1CCN(c2cccc(C)c2)CC1 [P261] | – | –
< 50 | – | CNCCN(C)Cc1ncccc1N1CCc2nc(SC)nc(C)c2CC1 [P323] | < 1000 | > 2500
< 50 | – | CNCCN(C)Cc1cc(F)ccc1C1CCN(S(=O)(=O)c2ccccc2[N+](=O)[O-])CC1 [P325] | < 1000 | 250 to 2500
– | < 1000 | CNCCN(C)Cc1ccc(NCCNCC(=O)NC)nc1C1CCN(c2cccc(C)c2)CC1 [P400] | – | –
< 50 | < 1000 | CNCCN(C)Cc1ccc2nn(C)cc2c1C1CCN(c2cccc(C)c2)CC1 [P401] | – | –
50 to 500 | 1000 to 5000 | CNCCN(C)Cc1ccc2c(c1C1CCN(c3cccc(C)c3)CC1)C(C)(C)C(=O)N2 [P402] | – | –
50 to 500 | < 1000 | CNCCN(C)Cc1ccc2c(c1C1CCN(c3cccc(C)c3)CC1)C(=O)C(=O)N2Cc1ccc(OC)cc1 [P404] | – | –
< 50 | < 1000 | CNCCN(C)Cc1ccc2c(c1C1CCN(c3cccc(C)c3)CC1)C(=O)C(=O)N2 [P405] | – | –
< 50 | < 1000 | CNCCN(C)Cc1ccc2[nH]c(N3CCOCC3)nc2c1C1CCN(c2cccc(C)c2)CC1 [P406, N,N′-dimethyl-N′-[[2-morpholin-4-[1-(m-tolyl)-4-piperidinyl]-1H-benzo[d]imidazol-5-yl]methyl]ethane-1,2-diamine] | – | –
50 to 500 | < 1000 | CNCCN(C)Cc1ccc2[nH]c(C(=O)c3ccccc3)nc2c1C1CCN(c2cccc(C)c2)CC1 [P407] | – | –
– | ≥ 5000 | CNCCN(C)Cc1cc2nc(N)[nH]c2cc1C1CCN(c2cccc(C)c2)CC1 [P408] | – | –
50 to 500 | < 1000 | CNCCN(C)Cc1cnc2[nH]ncc2c1C1CCN(c2cccc(C)c2)CC1 [P409] | – | –

IC50 [1] [nM] | IC50 [4] [nM] | Structure (SMILES) | IC50 [2] [nM] | EC30 [3] [nM]
– | < 1000 | CNCCN(C)Cc1ccc2c(c1C1CCN(c3cccc(C)c3)CC1)CC(C)(C)C(=O)N2 [P410] | – | –
– | < 1000 | CNCCN(C)Cc1ncc2[nH]c(=O)[nH]c2c1C1CCN(c2cccc(C)c2)CC1 [P413] | – | –
– | < 1000 | CNCCN(C)Cc1ncc2[nH]c(N3CCOCC3)nc2c1C1CCN(c2cccc(C)c2)CC1 [P414] | – | –
– | < 1000 | CNCCN(C)Cc1ncc2[nH]c(C)nc2c1C1CCN(c2cccc(C)c2)CC1 [P415] | – | –
– | < 1000 | CNCCN(C)Cc1ccc2[nH]c(C(F)(F)F)nc2c1C1CCN(c2cccc(C)c2)CC1 [P416] | – | –
– | < 1000 | CNCCN(C)Cc1ccc2[nH]c(-c3cnc(C)nc3)nc2c1C1CCN(c2cccc(C)c2)CC1 [P418] | – | –
– | < 1000 | CCOCC1(COCC)CCC(c2c(CN(C)CCNC)ccc3[nH]c(N4CCOCC4)nc23)CC1 [P419] | – | –
– | < 1000 | CNCCN(C)Cc1ccc2[nH]c(N3CCOCC3)nc2c1C1CCc2cc(F)c(F)cc2CC1 [P420] | – | –
– | < 1000 | CNCCN(C)Cc1ccc2[nH]c(C3=CCOCC3)nc2c1C1CCN(c2cccc(C)c2)CC1 [P422] | – | –
– | < 1000 | CNCCN(C)Cc1ccc2[nH]c(N3CCN(C)CC3)nc2c1C1CCN(c2cccc(C)c2)CC1 [P423] | – | –
– | < 1000 | CNCCN(C)Cc1ccc2[nH]c(N3CCCCC3)nc2c1C1CCN(c2cccc(C)c2)CC1 [P424] | – | –
– | < 1000 | Cc1cccc(N2CCC(c3c(CN(C)CCN)ccc4[nH]c(N5CCOCC5)nc34)CC2)c1 [P425] | – | –
– | < 1000 | CCN(CCNC)Cc1ccc2[nH]c(N3CCOCC3)nc2c1C1CCN(c2cccc(C)c2)CC1 [P426] | – | –
– | < 1000 | CNCCN(C)Cc1ccc2[nH]c(N3CCOCC3)nc2c1C1CCN(c2cccc(C)n2)CC1 [P428] | – | –
– | < 1000 | CNCCN(C)Cc1ccc2[nH]c(N3CCOCC3)nc2c1C1CCN(c2cncc(F)c2)CC1 [P429] | – | –
– | < 1000 | CNCCN(C)Cc1ccc2[nH]c(N3CCNCC3)nc2c1C1CCN(c2cccc(C)c2)CC1 [P440] | – | –
– | < 1000 | CNCCN(C)Cc1ccc2[nH]c(N3CCN(C(=O)CCCC(=O)N4CCN(c5nc6c(C7CCN(c8cccc(C)c8)CC7)c(CN(C)CCNC)ccc6[nH]5)CC4)CC3)nc2c1C1CCN(c2cccc(C)c2)CC1 [P442] | – | –
– | < 1000 | CNCCN(C)Cc1ccc2[nH]c(C3=CCN(C)CC3)nc2c1C1CCN(c2cccc(C)c2)CC1 [P447] | – | –
– | < 1000 | CNCCN(C)Cc1ccc2[nH]c(C3CCN(C)CC3)nc2c1C1CCN(c2cccc(C)c2)CC1 [P448] | – | –
